Test results taken from US9060971B2, “Combination pharmaceutical agents as inhibitors of HCV replication” (Enanta Pharmaceuticals, Inc., priority 2010, dated 2015).

Each compound was assayed on HCV 1b genotype replicon (assay: HCV replicon drug screening assay (quantitative RT-PCR or luciferase), genotype 1b). Conditions: Hepatitis C virus, read-out: Genotype-1b replicon EC50 Range.
Format: cell-based
Excerpt: HCV replicon cell lines (kindly provided by R. Bartenschlager) isolated from colonies as described by Lohman et. al. (Lohman et al. (1999) Science 285: 110-113, expressly incorporated by reference in its entirety) and used for all experiments. The HCV replicon has the nucleic acid sequence set forth in EMBL Accession No.: AJ242651, the coding sequence of which is from nucleotides 1801 to 8406.
The coding sequence of the published HCV replicon was synthesized and subsequently assembled in a modified plasmid pBR322 (Promega, Madison, Wis.) using standard molecular biology techniques. One replicon cell line (“SGR 11-7”) stably expresses HCV replicon RNA which consists of (i) the HCV 5′UTR fused to the first 12 amino acids of the capsid protein, (ii) the neomycin phosphotransferase gene (neo), (iii) the IRES from encephalomyocarditis virus (EMCV), and (iv) HCV NS2 to NS5B genes and the HCV 3′UTR. Another replicon cell line (“Huh-luc/neo-ET”) described by Vrolijk et. al. (Vrolijk et. al. (2003) Journal of Virological Methods 110:201-209, expressly incorporated by reference in its entirety) stably expresses HCV replicon RNA which consists of (i) the HCV 5′UTR fused to the first 12 amino acids of the capsid protein, (ii) the firefly luciferase reporter gene, (iii) the ubiquitin gene, (iv) the neomycin phosphotransferase gene (neo), (v) the IRES from encephalomyocarditis virus (EMCV), and (vi) HCV NS3 to NS5B genes that harbor cell culture adaptive mutations (E1202G, T12801, K1846T) and the HCV 3′UTR.
These cell lines are maintained at 37° C., 5% CO2, 100% relative humidity in DMEM (Cat#11965-084, Invitrogen), with 10% fetal calf serum (“FCS”, Invitrogen), 1% non-essential amino acids (Invitrogen), 1% of Glutamax (Invitrogen), 1% of 100× penicillin/streptomycin (Cat#15140-122, Invitrogen) and Geneticin (Cat#10131-027, Invitrogen) at 0.75 mg/ml or 0.5 mg/ml for 11-7 and Huh-luc/neo-ET cells, respectively.
EC50 values of single agent compounds and combinations were determined by HCV RNA detection using quantitative RT-PCR, according to the manufacturer's instructions, with a TAQMAN® One-Step RT-PCR Master Mix Reagents Kit (Cat#AB 4309169, Applied Biosystems) on an ABI Model 7500 thermocycler. The TaqMan primers to use for detecting and quantifying HCV RNA are 5′-GCTGCGGCCTGTCGAGCT-3′ (SEQ ID NO: 1), 5′-CAAGGTCGTCTCCGCATAC-3′ (SEQ ID NO: 2) and the probe 5′-FAM-[…]-BHQ-3′ (SEQ ID NO: 3) obtained from Integrated DNA Technologies. HCV RNA is normalized to GAPDH RNA levels in drug-treated cells, which is detected and quantified using the Human GAPDH Endogenous Control Mix (Applied Biosystems, AB 4310884E). Total cellular RNA is purified from 96-well plates using the RNAqueous 96 kit (Ambion, Cat#AM1812). Chemical agent cytotoxicity was evaluated using an MTS assay according to the manufacturer's directions (Promega).
The compounds described herein can be effective against the HCV 1b genotype. It should also be understood that the compounds can inhibit multiple genotypes of HCV. In one embodiment, compounds of Formula (I) are active against the 1a, 1b, 2a, 2b, 3a, 4a, and 5a genotypes. […] The EC50 ranges were classified into the following groups: A>10 nM; B 1-10 nM; C<1 nM. The potential cytotoxicities of each agent were analyzed in parallel by MTS assay and are greater than 3 uM for all agents.

`COC(=O)N[C@@H](C(=O)N1CCC[C@H]1c1ncc(C(=O)Nc2ccc(NC(=O)c3cnc([C@@H]4CCCN4C(=O)[C@H](NC(=O)OC)c4ccccc4)[nH]3)cc2)[nH]1)c1ccccc1` [Compound 121] gave an EC50 of 1 to 10 nM.

Same assay, conditions: Hepatitis C virus; HCV 1b genotype replicon; quantitative RT-PCR or luciferase assay; read-out: Genotype-1b replicon EC50 Range

`COC(=O)N[C@H](C(=O)N1CCC[C@H]1c1nc2cc(C#Cc3ccc(-c4c[nH]c([C@@H]5CCCN5C(=O)[C@@H](NC(C)=O)C(C)C)n4)cc3)ccc2[nH]1)C(C)C` [Compound 86] and `COC(=O)N[C@H](C(=O)N1CCC[C@H]1c1nc2cc(C#Cc3ccc(-c4c[nH]c([C@@H]5CCCN5C(=O)[C@H](NC(=O)OC)C(C)C)n4)cc3)ccc2[nH]1)C(C)C` [Compound 88] cannot be ordered by EC50: less than 1 nM for the first, less than 1 nM for the second.

`COC(=O)N[C@H](C(=O)N1CCC[C@H]1c1nc2cc(C#Cc3ccc(-c4c[nH]c([C@@H]5CCCN5C(=O)[C@@H](c5ccccc5)C(C)C)n4)cc3)ccc2[nH]1)C(C)C` [Compound 87] and `COC(=O)N[C@H](C(=O)N1CCC[C@H]1c1nc(-c2ccc(C#Cc3ccc4[nH]c([C@@H]5CCCN5C(=O)[C@@H](NC(=O)OC)C(C)C)nc4c3)cc2)c[nH]1)c1ccccc1` [Compound 89] cannot be ordered by EC50: less than 1 nM for the first, less than 1 nM for the second.

`COC(=O)N[C@H](C(=O)N1CCC[C@H]1c1nc(-c2ccc(C#Cc3ccc4[nH]c([C@@H]5C[C@@H](O)CN5C(=O)[C@@H](NC(=O)OC)C(C)C)nc4c3)cc2)c[nH]1)C(C)C` [Compound 91] and `C=C1C[C@@H](c2nc3cc(C#Cc4ccc(-c5c[nH]c([C@@H]6CCCN6C(=O)[C@@H](NC(=O)OC)C(C)C)n5)cc4)ccc3[nH]2)N(C(=O)[C@@H](NC(=O)OC)C(C)C)C1` [Compound 117] cannot be ordered by EC50: less than 1 nM for the first, less than 1 nM for the second.

`COC(=O)N[C@H](C(=O)N1CCC[C@H]1c1nc(-c2ccc(C#Cc3ccc4[nH]c([C@@H]5CC(F)(F)CN5C(=O)[C@@H](NC(=O)OC)C(C)C)nc4c3)cc2)c[nH]1)C(C)C` [Compound 92] and `COC(=O)N[C@H](C(=O)N1CC2(CC2)C[C@H]1c1nc(-c2ccc(C#Cc3ccc4[nH]c([C@@H]5CCCN5C(=O)[C@@H](NC(=O)OC)C(C)C)nc4c3)cc2)c[nH]1)C(C)C` [Compound 94] cannot be ordered by EC50: less than 1 nM for the first, less than 1 nM for the second.

`CC[C@H](C)[C@H](NC(=O)OC)C(=O)N1CCC[C@H]1c1ncc(-c2ccc(C#Cc3ccc4nc([C@@H]5CCCN5C(=O)[C@@H](NC(=O)OC)[C@@H](C)CC)[nH]c4c3)cc2)[nH]1` [Compound 96] and `COC(=O)N[C@H](C(=O)N1CCC[C@H]1c1ncc(-c2ccc(C#Cc3ccc4nc([C@@H]5CCCN5C(=O)[C@@H](NC(=O)OC)[C@H](C)O)[nH]c4c3)cc2)[nH]1)C(C)C` [Compound 101] cannot be ordered by EC50: less than 1 nM for the first, less than 1 nM for the second.

`COC(=O)N[C@H](C(=O)N1CCC[C@H]1c1ncc(-c2ccc(C#Cc3ccc4nc([C@@H]5CCCN5C(=O)[C@@H](NC(=O)OC)[C@@H](C)O)[nH]c4c3)cc2)[nH]1)[C@@H](C)O` [Compound 97] and `COC(=O)N[C@H](C(=O)N1CCC[C@H]1c1ncc(-c2ccc(C#Cc3ccc4nc([C@@H]5CCCN5C(=O)[C@@H](NC(=O)OC)C(C)(C)O)[nH]c4c3)cc2)[nH]1)C(C)C` [Compound 100] cannot be ordered by EC50: less than 1 nM for the first, less than 1 nM for the second.

`COC(=O)N[C@H](C(=O)N1CCC[C@H]1c1ncc(-c2ccc(C#Cc3ccc4nc([C@@H]5CCCN5C(=O)[C@@H](NC(=O)OC)C5CC5)[nH]c4c3)cc2)[nH]1)C(C)C` [Compound 98] and `COC(=O)N[C@H](C(=O)N1CCC[C@H]1c1ncc(-c2ccc(C#Cc3ccc4nc([C@@H]5CCCN5C(=O)[C@@H](NC(=O)OC)C(C)(C)C)[nH]c4c3)cc2)[nH]1)C(C)C` [Compound 99] cannot be ordered by EC50: less than 1 nM for the first, less than 1 nM for the second.

`CCC(NC(=O)OC)(C(=O)N1CCC[C@H]1c1nc2ccc(C#Cc3ccc(-c4cnc([C@@H]5CCCN5C(=O)[C@@H](NC(=O)OC)C(C)C)[nH]4)cc3)cc2[nH]1)c1ccccc1` (some centres unmarked) [Compound 102] and `COC(=O)N[C@H](C(=O)N1C[C@H](O)C[C@H]1c1ncc(-c2ccc(C#Cc3ccc4nc([C@@H]5CCCN5C(=O)[C@@H](NC(=O)OC)C(C)C)[nH]c4c3)cc2)[nH]1)C(C)C` [Compound 105] cannot be ordered by EC50: less than 1 nM for the first, less than 1 nM for the second.

`COC(=O)N[C@@H](C(=O)N1CCC[C@H]1c1nc2ccc(C#Cc3ccc(-c4cnc([C@@H]5CCCN5C(=O)[C@H](NC(=O)OC)c5ccccc5)o4)cc3)cc2[nH]1)c1ccccc1` [Compound 103] and `COC(=O)N[C@@H](C(=O)N1CCC[C@H]1c1nc2ccc(CCc3ccc(-c4cnc([C@@H]5CCCN5C(=O)[C@H](NC(=O)OC)c5ccccc5)o4)cc3)cc2[nH]1)c1ccccc1` [Compound 104] cannot be ordered by EC50: less than 1 nM for the first, less than 1 nM for the second.

`COC(=O)N[C@H](C(=O)N1CCC[C@H]1c1ncc(-c2ccc(C#Cc3ccc4nc([C@@H]5C[C@@H](F)CN5C(=O)[C@@H](NC(=O)OC)C(C)C)[nH]c4c3)cc2)[nH]1)C(C)C` [Compound 106] and `COC(=O)N[C@H](C(=O)N1CCC[C@H]1c1ncc(-c2ccc(C#Cc3ccc4nc([C@@H]5C[C@H](F)CN5C(=O)[C@@H](NC(=O)OC)C(C)C)[nH]c4c3)cc2)[nH]1)C(C)C` [Compound 109] cannot be ordered by EC50: less than 1 nM for the first, less than 1 nM for the second.

`COC(=O)N[C@H](C(=O)N1CCC[C@H]1c1ncc(-c2ccc(C#Cc3ccc4nc([C@@H]5C[C@H]6C[C@H]6N5C(=O)[C@@H](NC(=O)OC)C(C)C)[nH]c4c3)cc2)[nH]1)C(C)C` [Compound 107] and `COC(=O)N[C@H](C(=O)N1CCC[C@H]1c1ncc(-c2ccc(C#Cc3ccc4nc([C@@H]5CC[C@H](C)N5C(=O)[C@@H](NC(=O)OC)C(C)C)[nH]c4c3)cc2)[nH]1)C(C)C` [Compound 108] cannot be ordered by EC50: less than 1 nM for the first, less than 1 nM for the second.

`COC(=O)N[C@H](C(=O)N1CCC[C@H]1c1ncc(-c2ccc(C#Cc3cc4[nH]c([C@@H]5CCCN5C(=O)[C@@H](NC(=O)OC)C(C)C)nc4cc3OC)cc2)[nH]1)C(C)C` [Compound 110] and `COC(=O)N[C@H](C(=O)N1CCC[C@H]1c1nc(-c2ccc(C#Cc3ccc4[nH]c([C@@H]5CCCN5C(=O)[C@@H](NC(=O)OC)C(C)C)nc4n3)cc2)c[nH]1)C(C)C` [Compound 113] cannot be ordered by EC50: less than 1 nM for the first, less than 1 nM for the second.

`COC(=O)N[C@@H](C(=O)N1CCC[C@H]1c1nc2cc(-c3ccc(-c4cnc5[nH]c([C@@H]6CCCN6C(=O)[C@H](NC(=O)OC)c6ccccc6)nc5c4)cc3)cnc2[nH]1)c1ccccc1` [Compound 112] and `COC(=O)N[C@@H](C(=O)N1CCC[C@H]1c1cc2cc(C#Cc3ccc(-c4c[nH]c([C@@H]5CCCN5C(=O)[C@H](NC(=O)OC)c5ccccc5)n4)cc3)ccc2[nH]1)c1ccccc1` [Compound 116] cannot be ordered by EC50: less than 1 nM for the first, less than 1 nM for the second.

`COC(=O)N[C@H](C(=O)N1CCC[C@H]1c1nc(-c2ccc3cc(-c4ccc5[nH]c([C@@H]6CCCN6C(=O)[C@@H](NC(=O)OC)C(C)C)nc5n4)ccc3c2)c[nH]1)C(C)C` [Compound 114] and `C=C1C[C@@H](c2nc(-c3ccc(C#Cc4ccc5[nH]c([C@@H]6CCCN6C(=O)[C@@H](NC(=O)OC)C(C)C)nc5c4)cc3)c[nH]2)N(C(=O)[C@@H](NC(=O)OC)C(C)C)C1` [Compound 118] cannot be ordered by EC50: less than 1 nM for the first, less than 1 nM for the second.

`C=C1C[C@@H](c2nc(-c3ccc(C#Cc4ccc5[nH]c([C@@H]6CC(=C)CN6C(=O)[C@@H](NC(=O)OC)C(C)C)nc5c4)cc3)c[nH]2)N(C(=O)[C@@H](NC(=O)OC)C(C)C)C1` [Compound 119] and `COC(=O)N[C@H](C(=O)N1CCC[C@H]1c1nc2cc(C#Cc3ccc(-c4c[nH]c(C5[C@H]6CC[C@H](C6)N5C(=O)[C@@H](NC(=O)OC)C(C)C)n4)cc3)ccc2[nH]1)C(C)C` (some centres unmarked) [Compound 122] cannot be ordered by EC50: less than 1 nM for the first, less than 1 nM for the second.

`COC(=O)N[C@@H](C(=O)N1CCC[C@H]1c1ncc(C(=O)N[C@H]2CC[C@H](NC(=O)c3cnc([C@@H]4CCCN4C(=O)[C@H](NC(=O)OC)c4ccccc4)[nH]3)CC2)[nH]1)c1ccccc1` [Compound 120] gave an EC50 greater than 10 nM.
